Here are results for two compounds from article PMC9596378, “Discovery and molecular basis of subtype-selective cyclophilin inhibitors” (Nature Chemical Biology, 2022).

The target in series [1] is CypD (Homo sapiens, UniProt P30405). The series is described as follows: Chymotrypsin coupled prolyl-isomerase assay. As to conditions: read-out: IC50 CypD; prolyl-isomerase inhibition, 5 nM cyclophilin, Suc-AAPF-AMC; mean±s.e.m. of 3 technical replicates (B52, B53, C3A wild-type: mean±s.d. of 4 independent replicates). The procedure: Five microliters of compound pre-dissolved in 5% DMSO/assay buffer was then added to appropriate wells and incubated at 2–3 °C for 5 min. Five microliters of 0.5 mM α-chymotrypsin from bovine pancreas (Type II, lyophilized powder, Millipore-Sigma) in 20% 1 mM HCl/Assay Buffer was then added to each well and incubated at 2–3 °C for 5 min. The plate was then quickly transferred to a FLIPR Tetra High-Throughput Cellular Screening System (Molecular Devices). Using the internal liquid handling system of the FLIPR, 1 µL 0.5 mM Suc-AAPF-AMC (Chymotrypsin Substrate II, Millipore-Sigma) dissolved in 0.55 M LiCl/2,2,2-trifluoroethanol was added to each well, which was then mixed for 5 s, followed by immediate fluorescence measurements every 1 s for 330 s using a 360–380 nm excitation LED module and a 400–460 nm emission filter. […] Raw fluorescence data was analyzed by non-linear regression analysis with Prism v.9 by fitting one-phase association curves to each well. […] Rate constants calculated for each well (s^−1) were then normalized to substrate only (no prolyl-isomerase) and enzyme + substrate only controls.
Chain of CypD (P30405 45-207): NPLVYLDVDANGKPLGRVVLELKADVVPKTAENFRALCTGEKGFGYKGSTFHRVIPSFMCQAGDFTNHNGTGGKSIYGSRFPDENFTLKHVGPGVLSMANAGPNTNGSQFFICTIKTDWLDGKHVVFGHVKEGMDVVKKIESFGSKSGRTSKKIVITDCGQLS

The target in series [2] is T1, CypA (Homo sapiens, UniProt P62937).
T1 construct: PPIA (UniProtKB Entry P62937: residues 1–165); made in house; host or cells: E. coli BL21(DE3)
T1 sequence (P62937 whole entry, the tested form may be a part): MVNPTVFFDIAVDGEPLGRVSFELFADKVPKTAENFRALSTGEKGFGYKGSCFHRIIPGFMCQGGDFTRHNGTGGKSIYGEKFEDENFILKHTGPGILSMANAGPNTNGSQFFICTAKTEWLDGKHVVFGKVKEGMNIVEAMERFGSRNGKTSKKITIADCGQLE
The series is described as follows: Chymotrypsin coupled prolyl-isomerase assay. Format: biochemical. As to conditions: wild-type CypA; read-out: Wild-Type Cyclophilin Prolyl Isomerase Inhibition IC50 Values, CypA. On the procedure:
(§1) Adapting a previously described protocol, with an Agilent Bravo Velocity 11 with a 384ST head, 90 µL assay buffer (25 mM HEPES pH 7.3, 100 mM NaCl, 0.01% Triton X-100) containing 5.28 nM cyclophilin was added into a flat, clear-bottom, black 384-well plate pre-chilled in a Corning CoolBox at 2–3 °C. Five microliters of compound pre-dissolved in 5% DMSO/assay buffer was then added to appropriate wells and incubated at 2–3 °C for 5 min. Five microliters of 0.5 mM α-chymotrypsin from bovine pancreas (Type II, lyophilized powder, Millipore-Sigma) in 20% 1 mM HCl/Assay Buffer was then added to each well and incubated at 2–3 °C for 5 min. The plate was then quickly transferred to a FLIPR Tetra High-Throughput Cellular Screening System (Molecular Devices). Using the internal liquid handling system of the FLIPR, 1 µL 0.5 mM Suc-AAPF-AMC (Chymotrypsin Substrate II, Millipore-Sigma) dissolved in 0.55 M LiCl/2,2,2-trifluoroethanol was added to each well, which was then mixed for 5 s, followed by immediate fluorescence measurements every 1 s for 330 s using a 360–380 nm excitation LED module and a 400–460 nm emission filter. Final concentrations of the plate include 5 nM cyclophilin, 0.25% DMSO, 25 µM α-chymotrypsin, 5 µM Suc-AAPF-AMC. Raw fluorescence data was analyzed by non-linear regression analysis with Prism v.9 by fitting one-phase association curves to each well. […] Rate constants calculated for each well (s^−1) were then normalized to substrate only (no prolyl-isomerase) and enzyme + substrate only controls. IC50 values were calculated as the value at which 50% inhibition was achieved on the non-linear regression fitted curve of each compound.

Series [3] concerns the target T2, CypC (Homo sapiens, UniProt P45877).
T2 construct: PPIC (UniProtKB Entry P45877: residues 24–212); host or cells: E. coli BL21(DE3)
The series is described as follows: Chymotrypsin coupled prolyl-isomerase assay. As to conditions: wild-type CypC; read-out: Wild-Type Cyclophilin Prolyl Isomerase Inhibition IC50 Values, CypC. Format: biochemical. The procedure:
as §1

Series [4] deals with T3, CypG (Homo sapiens, UniProt Q13427).
T3 construct: PPIG (UniProtKB Entry Q13427: residues 1–179); His6 with thrombin site (pET28a LIC leader) (N); host or cells: E. coli BL21(DE3)
T3 sequence (Q13427 1-179): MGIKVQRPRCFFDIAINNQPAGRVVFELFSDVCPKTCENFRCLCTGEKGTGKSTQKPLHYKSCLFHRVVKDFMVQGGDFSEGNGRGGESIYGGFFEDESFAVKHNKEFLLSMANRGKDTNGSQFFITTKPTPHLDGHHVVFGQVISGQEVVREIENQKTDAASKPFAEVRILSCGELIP
The experiment in a line: Chymotrypsin coupled prolyl-isomerase assay. Format: biochemical. As to conditions: wild-type CypG; read-out: Wild-Type Cyclophilin Prolyl Isomerase Inhibition IC50 Values, CypG. The procedure: as §1

Series [5] deals with T4, CypE (Homo sapiens, UniProt Q9UNP9).
T4 construct: PPIE (UniProtKB Entry Q9UNP9: residues 131–301); host or cells: E. coli BL21(DE3)
T4 sequence (Q9UNP9 131-301): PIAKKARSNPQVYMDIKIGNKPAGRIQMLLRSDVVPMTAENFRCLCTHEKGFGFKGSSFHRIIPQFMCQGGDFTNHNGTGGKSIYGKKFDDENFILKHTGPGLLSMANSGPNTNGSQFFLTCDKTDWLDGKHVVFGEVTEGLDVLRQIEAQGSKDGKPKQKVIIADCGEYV
The experiment in a line: Chymotrypsin coupled prolyl-isomerase assay. Format: biochemical. As to conditions: wild-type CypE; read-out: Wild-Type Cyclophilin Prolyl Isomerase Inhibition IC50 Values, CypE. On the procedure:
as §1

For series [6], the target named is T5, CypH (Homo sapiens, UniProt O43447).
T5 construct: PPIH (UniProtKB Entry O43447: residues 1–177); His6 with TEV site (2BT vector leader) (N); made in house; host or cells: E. coli BL21(DE3)
T5 sequence (O43447 whole entry, the tested form may be a part): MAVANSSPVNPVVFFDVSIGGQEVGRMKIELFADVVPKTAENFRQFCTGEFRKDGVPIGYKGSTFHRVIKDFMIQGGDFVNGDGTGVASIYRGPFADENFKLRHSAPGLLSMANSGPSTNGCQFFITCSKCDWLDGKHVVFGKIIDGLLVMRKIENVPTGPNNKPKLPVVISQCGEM
The experiment in a line: Chymotrypsin coupled prolyl-isomerase assay. Format: biochemical. As to conditions: wild-type CypH; read-out: Wild-Type Cyclophilin Prolyl Isomerase Inhibition IC50 Values, CypH. The procedure: as §1

The target of series [7] is T6, PPIL1 (Homo sapiens, UniProt Q9Y3C6).
T6 construct: PPIL1 (UniProtKB Entry Q9Y3C6: residues 1–166); made in house; host or cells: E. coli BL21(DE3)
T6 sequence (Q9Y3C6 1-166): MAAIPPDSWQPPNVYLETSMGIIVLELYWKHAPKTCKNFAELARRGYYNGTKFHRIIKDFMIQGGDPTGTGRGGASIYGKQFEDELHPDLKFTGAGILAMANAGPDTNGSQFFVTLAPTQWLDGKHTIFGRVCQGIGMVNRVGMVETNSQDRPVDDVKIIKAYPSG
The series is described as follows: Chymotrypsin coupled prolyl-isomerase assay. Format: biochemical. As to conditions: wild-type PPIL1; read-out: Wild-Type Cyclophilin Prolyl Isomerase Inhibition IC50 Values, PPIL1.
Description: (§2) Adapting a previously described protocol[51], with an Agilent Bravo Velocity 11 with a 384ST head, 90 µL assay buffer (25 mM HEPES pH 7.3, 100 mM NaCl, 0.01% Triton X-100) containing 5.28 nM cyclophilin was added into a flat, clear-bottom, black 384-well plate pre-chilled in a Corning CoolBox at 2–3 °C. Five microliters of compound pre-dissolved in 5% DMSO/assay buffer was then added to appropriate wells and incubated at 2–3 °C for 5 min. Five microliters of 0.5 mM α-chymotrypsin from bovine pancreas (Type II, lyophilized powder, Millipore-Sigma) in 20% 1 mM HCl/Assay Buffer was then added to each well and incubated at 2–3 °C for 5 min. […] Using the internal liquid handling system of the FLIPR, 1 µL 0.5 mM Suc-AAPF-AMC (Chymotrypsin Substrate II, Millipore-Sigma) dissolved in 0.55 M LiCl/2,2,2-trifluoroethanol was added to each well, which was then mixed for 5 s, followed by immediate fluorescence measurements every 1 s for 330 s using a 360–380 nm excitation LED module and a 400–460 nm emission filter. Final concentrations of the plate include 5 nM cyclophilin, 0.25% DMSO, 25 µM α-chymotrypsin, 5 µM Suc-AAPF-AMC. Raw fluorescence data was analyzed by non-linear regression analysis with Prism v.9 by fitting one-phase association curves to each well. Analyses were halted after the calculated maximum fluorescent value owing to observed fluorescent bleaching during the sustained fluorescent plateau. Rate constants calculated for each well (s^−1) were then normalized to substrate only (no prolyl-isomerase) and enzyme + substrate only controls. IC50 values were calculated as the value at which 50% inhibition was achieved on the non-linear regression fitted curve of each compound.

Series [8] concerns the target T7, PPWD1 (Homo sapiens, UniProt Q96BP3).
T7 construct: PPWD1 (UniProtKB Entry Q96BP3: residues 473–646); host or cells: E. coli BL21(DE3)
T7 sequence (Q96BP3 473-646): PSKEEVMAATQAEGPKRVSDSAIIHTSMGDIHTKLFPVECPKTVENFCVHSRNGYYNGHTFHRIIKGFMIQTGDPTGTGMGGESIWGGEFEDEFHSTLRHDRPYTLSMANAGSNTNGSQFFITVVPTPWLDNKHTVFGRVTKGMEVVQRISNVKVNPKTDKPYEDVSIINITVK
The series is described as follows: Chymotrypsin coupled prolyl-isomerase assay. Format: biochemical. As to conditions: wild-type PPWD1; read-out: Wild-Type Cyclophilin Prolyl Isomerase Inhibition IC50 Values, PPWD1.
Description: Five microliters of compound pre-dissolved in 5% DMSO/assay buffer was then added to appropriate wells and incubated at 2–3 °C for 5 min. Five microliters of 0.5 mM α-chymotrypsin from bovine pancreas (Type II, lyophilized powder, Millipore-Sigma) in 20% 1 mM HCl/Assay Buffer was then added to each well and incubated at 2–3 °C for 5 min. The plate was then quickly transferred to a FLIPR Tetra High-Throughput Cellular Screening System (Molecular Devices). Using the internal liquid handling system of the FLIPR, 1 µL 0.5 mM Suc-AAPF-AMC (Chymotrypsin Substrate II, Millipore-Sigma) dissolved in 0.55 M LiCl/2,2,2-trifluoroethanol was added to each well, which was then mixed for 5 s, followed by immediate fluorescence measurements every 1 s for 330 s using a 360–380 nm excitation LED module and a 400–460 nm emission filter. […] Raw fluorescence data was analyzed by non-linear regression analysis with Prism v.9 by fitting one-phase association curves to each well. Analyses were halted after the calculated maximum fluorescent value owing to observed fluorescent bleaching during the sustained fluorescent plateau. Rate constants calculated for each well (s^−1) were then normalized to substrate only (no prolyl-isomerase) and enzyme + substrate only controls.

Series [9] addresses T8, CypB (Homo sapiens, UniProt P23284).
T8 construct: PPIB (UniProtKB Entry P23284: residues 34–216); His6 with TEV site (2BT vector leader) (N); made in house; host or cells: E. coli BL21(DE3)
The series is described as follows: biochemical. As to conditions: wild-type CypB; read-out: Wild-Type Cyclophilin Prolyl Isomerase Inhibition IC50 Values, CypB. The procedure: as §1

Series [10] deals with T9, NKTR (Homo sapiens, UniProt P30414).
T9 construct: NKTR (UniProtKB Entry P30414: residues 7–179); host or cells: E. coli BL21(DE3)
T9 sequence (P30414 7-179): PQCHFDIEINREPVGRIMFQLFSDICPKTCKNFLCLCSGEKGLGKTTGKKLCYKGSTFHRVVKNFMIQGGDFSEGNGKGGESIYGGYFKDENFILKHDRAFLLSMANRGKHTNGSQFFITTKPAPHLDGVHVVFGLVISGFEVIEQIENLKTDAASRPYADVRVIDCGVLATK
The series is described as follows: Chymotrypsin coupled prolyl-isomerase assay. Format: biochemical.
Description: as §2

Series [11] addresses Cyp40 (Homo sapiens, UniProt Q08752). The series is described as follows: Chymotrypsin coupled prolyl-isomerase assay. On the procedure: as §1
In series [12] the test system is HeLa cells. The series is described as follows: Fluorescence microscopy of Cy5-conjugated compounds. Format: cell-based, human. The procedure: Cells were seeded into 96-well, black, clear-bottom, TC-treated plates, in DMEM supplemented with 10% FBS 24 h prior at a density where wells were ~80% confluent at the time of the experiment. Medium was removed and cells were then stained with 50 µL mixture containing Cy5-labeled compound (6 µM) in Kreb’s ringer solution HEPES buffered pH 7.2 (KRB), for 1 h at 37 °C. Then, 50 µL Hoechst 33342 (8 µM) and Mitotracker Green FM (0.1 µM) in KRB was added directly to wells containing cells and incubated for 15 min at 37 °C. Medium was removed and cells were washed twice with 100 µL KRB. Cells were then kept adherent to the wells in 100 µL KRB for imaging. Fluorescence microscopy was conducted on an Opera Phenix Plus High-Content Screening System, using Alexa 488, Alexa 647, and Hoescht 33342 channels. Images were analyzed using Harmony v.4.9.

The structures appear in SMILES notation. pIC50: −log10 of the molar value. Where two headings read alike, the source gives them in different places.

Chain of Cyp40 (Q08752 1-183): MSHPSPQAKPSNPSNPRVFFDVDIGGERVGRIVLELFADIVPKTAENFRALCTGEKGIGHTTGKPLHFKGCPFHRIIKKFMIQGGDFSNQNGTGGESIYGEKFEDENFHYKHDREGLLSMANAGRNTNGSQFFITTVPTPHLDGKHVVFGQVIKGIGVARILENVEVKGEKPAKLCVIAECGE
T2 sequence (P45877 24-212): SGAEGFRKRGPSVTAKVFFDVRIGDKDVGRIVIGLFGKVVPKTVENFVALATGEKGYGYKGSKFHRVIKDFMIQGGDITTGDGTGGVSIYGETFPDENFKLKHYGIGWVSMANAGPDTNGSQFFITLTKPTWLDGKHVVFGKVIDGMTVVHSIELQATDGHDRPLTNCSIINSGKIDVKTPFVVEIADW
T8 sequence (P23284 34-216): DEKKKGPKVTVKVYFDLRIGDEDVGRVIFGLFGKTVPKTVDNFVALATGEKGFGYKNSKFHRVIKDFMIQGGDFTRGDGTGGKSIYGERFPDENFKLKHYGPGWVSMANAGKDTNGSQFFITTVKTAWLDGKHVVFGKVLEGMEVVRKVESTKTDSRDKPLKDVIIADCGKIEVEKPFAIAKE

On to `NCCOCCNC(=O)[C@@H]1CCNC(=O)/C=C/C(=O)N2CCC[C@](Cc3ccccc3)(C2)C(=O)N[C@@H](Cc2ccc(-c3ccc(/C=C/C(=O)O)cc3)cc2)C(=O)NCc2ccccc2CC(=O)N1` [Compound B24], for which the pIC50 in [1] is 8.72; in series [2], 8.00; in series [3], 5.82; in [4] it was 4.96; in series [5], 8.40; in series [6], less than 4.30. Also, the negative logarithm of the IC50 (pIC50) was 7.70 in series [7]; 5.22 in series [8]; 8.30 in series [9]; roughly 4.89 in series [10] (prolyl-isomerase inhibition, 5 nM cyclophilin, read-out: IC50 NKTR); 4.89 in series [10] (wild-type NKTR, read-out: Wild-Type Cyclophilin Prolyl Isomerase Inhibition IC50 Values, NKTR); 6.82 in [11].
`CC(=O)NCCNC(=O)CCCCCN1\C(=C/C=C/C=C/C2=[N+](C)c3ccccc3C2(C)C)C(C)(C)c2ccccc21` [Cy5-enAc, reference compound]: the negative logarithm of the IC50 (pIC50) in [1] is less than 5.70. For the same compound, the “plasma membrane permeability / mitochondrial localization (in words)” value in [12] is on record as “good mitochondrial localization”.

In general, pIC50 refers to the negative decadic logarithm of the IC50, by convention in mol/L.
